Our source for the M.I.C. values is patent publication US5610143A, “Antibiotics GE 37468 A, B and C” (Gruppo Lepetit S.p.A., priority 1995, dated 1997).

Experiment [1] concerns Staphylococcus aureus Smith. Nature of the experiment: MIC by broth microdilution. The note with it: Iso-Sensitest broth, inoculum 10^4 CFU/ml, 20-24 h, 37° C. Format: cell-based.
Experiment [2] concerns Enterococcus faecalis ATCC 7080. Description: MIC by broth microdilution. Type of experiment: cell-based. The note with it: Iso-Sensitest broth, inoculum 10^4 CFU/ml, 20-24 h, 37° C. In general terms: In broth dilution the organism is exposed to a series of concentrations in liquid medium.
For experiment [3], the system named is Propionibacterium acnes ATCC 6919. Nature of the experiment: MIC by broth microdilution. Type of experiment: cell-based. To be noted: Wilkins-Chalgren broth, inoculum 10^5, 48 h, 37° C., N2:CO2:H2 (80:10:10).
Experiment [4] relates to Staphylococcus aureus L165. To be noted: Iso-Sensitest broth, inoculum 10^4 CFU/ml, 20-24 h, 37° C.
In experiment [5] the test system is Staphylococcus epidermidis ATCC 12228. To be noted: Iso-Sensitest broth, inoculum 10^4 CFU/ml, 20-24 h, 37° C.
In experiment [6] the test system is Staphylococcus haemolyticus L602. To be noted: Iso-Sensitest broth, inoculum 10^4 CFU/ml, 20-24 h, 37° C.
For experiment [7], the system named is Clostridium perfringens L290. To be noted: Wilkins-Chalgren broth, inoculum 10^5, 48 h, 37° C., N2:CO2:H2 (80:10:10).
Experiment [8] has as its system Bacteroides fragiles ATCC 25285. The note with it: Wilkins-Chalgren broth, inoculum 10^5, 48 h, 37° C., N2:CO2:H2 (80:10:10).
Experiment [9] concerns Neisseria gonorrhoeae L997. The note with it: GC Base broth +1% IsoVitalex, inoculum 10^4 CFU/ml, 48 h, 37° C., 5% CO2 in air.
Experiment [10] has as its system Haemophilus influenzae ATCC 19418. The note with it: Brain Heart Infusion broth +1% Supplement C, inoculum 10^4 CFU/ml, 48 h, 37° C., 5% CO2 in air.
A further experiment deals with Escherichia coli L47. To be noted: Iso-Sensitest broth, inoculum 10^4 CFU/ml, 20-24 h, 37° C.
The test system of experiment [11] is Pseudomonas aeruginosa ATCC 10145. The note with it: Iso-Sensitest broth, inoculum 10^4 CFU/ml, 20-24 h, 37° C.
In experiment [12] the test system is Proteus vulgaris ATCC 881. The note with it: Iso-Sensitest broth, inoculum 10^4 CFU/ml, 20-24 h, 37° C.
The subject of the next experiment is Candida albicans L145. The note with it: phosphate buffered Yeast Nitrogen Base broth with glucose and L-asparagine, inoculum 10^4 CFU/ml, 20-24 h, 37° C.

Bounds are passed on as bounds.

With `C=C(NC(=O)c1csc(-c2ccc3c(n2)-c2csc(n2)-c2csc(n2)C2C(C)CC(O)N2C(=O)C(Cc2ccc(O)cc2)NC(=O)C2CSC(=N2)C(Cc2ccccc2)NC(=O)c2csc(n2)C(CC(N)=O)NC(=O)c2nc-3oc2C)n1)C(N)=O` (stereo not shown) [GE37468C], the M.I.C. in [1] is given as 0.03 microgram/ml; in experiment [2] it was 0.03 microgram/ml; in experiment [3] it was 0.016 microgram/ml; in [4], 0.03 microgram/ml; in [5] it was 0.25 microgram/ml; in experiment [6], 0.13 microgram/ml. The M.I.C. is listed as 0.016 microgram/ml in experiment [7]; above 128 microgram/ml in experiment [8]; above 128 microgram/ml in [9]; above 128 microgram/ml in experiment [10]; above 128 microgram/ml in the experiment with Escherichia coli L47; above 128 microgram/ml in experiment [11]. The M.I.C. (in experiment [12]; in the experiment on Candida albicans L145) was above 128 microgram/ml in each case.
With `Cc1oc2nc1C(=O)NC(CC(N)=O)c1nc(cs1)C(=O)NC(Cc1ccccc1)C1=NC(CS1)C(=O)NC(Cc1ccc(O)cc1)C(=O)N1C(O)CC(C)C1c1nc(cs1)-c1nc(cs1)-c1nc(-c3nc(C(N)=O)cs3)ccc1-2` (stereo not shown) [GE37468B], the M.I.C. in [1] turned out to be 0.03 microgram/ml; in experiment [2] it was 0.03 microgram/ml; in experiment [3] it was 0.016 microgram/ml; in experiment [4] it was 0.03 microgram/ml; in [5], 0.06 microgram/ml; in experiment [6], 0.13 microgram/ml. Also, the M.I.C. was 0.016 microgram/ml in experiment [7]; above 128 microgram/ml in experiment [8]; above 128 microgram/ml in [9]; above 128 microgram/ml in experiment [10]; above 128 microgram/ml in the experiment with Escherichia coli L47; above 128 microgram/ml in experiment [11]. Besides, the M.I.C. (in experiment [12]; with Candida albicans L145) was above 128 microgram/ml in each case.
